The record followed here is patent publication US20240279241A1, “PYRIDO[4,3-D]PYRIMIDINE COMPOUNDS CAPABLE OF INHIBITING KRAS MUTANT PROTEINS” (Redx Pharma PLC, priority 2021, published 2024).

Common to all, as to type: biochemical
Test [1] addresses T1, KRAS G12S (Homo sapiens, UniProt P01116, G12S).
T1 construct: 4 nM KRAS; aa1-188 containing the G12V, G12C, G12A or G12S amino acid substitution
Nature of the test: HTRF nucleotide exchange assay (NEA), KRAS G12S. An outline of the steps:
(§1)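 Assay buffer: 10 mM HEPES pH7.3, 150 mM NaCl, 5 mM MgCl2, 100 mM KF, BSA and NP-40. KRAS aa1-188 with His tag (2 nM WT/G13D, 4 nM G12C/G12S) was exposed to compound for 60 min before the labeled GTP was added (200 nM solution). Fluorescence was read after 30 min at room temperature.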

Test [2] has as its target T2, KRAS WT (Homo sapiens, UniProt P01116).
T2 construct: Recombinant human RAS protein (2 nM); aa1-188 KRAS WT
Nature of the test: HTRF nucleotide exchange assay (NEA), KRAS WT. An outline of the steps:
as §1

The target in test [3] is T3, KRAS Q61H (Homo sapiens, UniProt P01116, Q61H).
T3 construct: Recombinant human RAS protein (2 nM); aa1-188 KRAS WT
The test is described as follows: HTRF nucleotide exchange assay (NEA), KRAS Q61H. How it is done:
(§2) The capacity of compounds to bind KRAS G12D, other KRAS mutants and wildtype RAS isoforms was quantified using a HTRF nucleotide exchange assay. Recombinant human RAS protein (2 nM; aa1-188 KRAS WT, HRAS WT, NRAS WT, or KRAS containing the containing the G12D, G13D or Q61H amino acid substitutions, or 4 nM KRAS; aa1-188 containing the G12V, G12C, G12A or G12S amino acid substitution, an N-terminal 6×His-tag and leader sequence), and 2 nM Europium-labeled anti-6×His antibody were mixed in assay buffer (10 mM HEPES pH7.3, 150 mM NaCl, 5 mM MgCl2, 0.05% BSA, 0.0025% NP-40 and 100 mM KF) with various concentrations of compound in a 384-well plate and a volume of 5 uL. After a 60-minute incubation at room temperature, 5 ul of 200 nM EDA-GTP-DY647P1 (diluted in assay buffer) was added to the plate. Following 30-minute incubation at room temperature, time-resolved fluorescence was measured on a PerkinElmer Envision plate reader. DMSO (0.3%) and unlabeled […] (1 μM) or equivalent tool compound were used to generate the Max and Min assay signals, respectively. Data was analysed using a four-parameter logistic model to calculate IC50 values, with at least two independent replicates were performed for each compound.
In general terms: TR-FRET usually uses a lanthanide donor and a delayed reading to cut background.

For test [4], the target named is T4, KRAS G12D (Homo sapiens, UniProt P01116, G12D).
T4 construct: Recombinant human RAS protein (2 nM)
Nature of the test: HTRF nucleotide exchange assay (NEA), KRAS G12D. Conditions: recombinant human KRAS G12D aa1-188, 2 nM; lowest class = % inhibition at 10 μM. An outline of the steps:
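Compound binding to KRAS G12D was measured by HTRF nucleotide exchange. Recombinant human KRAS G12D (aa1-188, N-terminal 6×His-tag, 2 nM) and 2 nM Europium anti-6×His antibody were combined with compound in 5 uL assay buffer in 384-well plates for 60 minutes at room temperature, then 5 ul of 200 nM EDA-GTP-DY647P1 was added for 30 minutes before time-resolved fluorescence reading.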

Test [5] deals with T5, KRAS G13D (Homo sapiens, UniProt P01116, G13D).
T5 construct: Recombinant human RAS protein (2 nM); aa1-188 KRAS WT
The test is described as follows: HTRF nucleotide exchange assay (NEA), KRAS G13D. Here is the method: as §2

Test [6] deals with T6, KRAS G12A (Homo sapiens, UniProt P01116, G12A).
T6 construct: 4 nM KRAS; aa1-188 containing the G12V, G12C, G12A or G12S amino acid substitution
Nature of the test: HTRF nucleotide exchange assay (NEA), KRAS G12A. Here is the method: as §2

Test [7] deals with T7, KRAS G12C (Homo sapiens, UniProt P01116, G12C).
T7 construct: 4 nM KRAS; aa1-188 containing the G12V, G12C, G12A or G12S amino acid substitution
The test is described as follows: HTRF nucleotide exchange assay (NEA), KRAS G12C. An outline of the steps: as §1

Test [8] addresses T8, KRAS G12V (Homo sapiens, UniProt P01116, G12V).
T8 construct: 4 nM KRAS; aa1-188 containing the G12V, G12C, G12A or G12S amino acid substitution
Nature of the test: HTRF nucleotide exchange assay (NEA), KRAS G12V. An outline of the steps: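 After a further 30 minutes at room temperature, time-resolved fluorescence was read on a PerkinElmer Envision. The buffer contained 10 mM HEPES pH7.3, 150 mM NaCl, 5 mM MgCl2, 0.05% BSA, 0.0025% NP-40 and 100 mM KF. DMSO (0.3%) gave the Max signal and unlabeled GOP (1 μM) the Min signal. IC50 came from four-parameter logistic fits of at least two independent replicates.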

Where [9] appears, read: recombinant human KRAS G13D aa1-188, 2 nM, lowest class = % inhibition at 10 μM.

Read-outs that look alike come from different tables or passages of the source.

T4 sequence (P01116 1-188 isoform P01116-2 G12D): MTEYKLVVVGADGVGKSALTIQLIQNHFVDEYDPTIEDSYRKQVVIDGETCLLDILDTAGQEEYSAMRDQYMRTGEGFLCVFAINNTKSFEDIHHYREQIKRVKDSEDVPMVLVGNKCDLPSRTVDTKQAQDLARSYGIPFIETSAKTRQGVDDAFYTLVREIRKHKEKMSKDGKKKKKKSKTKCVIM
T6 sequence (P01116 1-188 isoform P01116-2 G12A): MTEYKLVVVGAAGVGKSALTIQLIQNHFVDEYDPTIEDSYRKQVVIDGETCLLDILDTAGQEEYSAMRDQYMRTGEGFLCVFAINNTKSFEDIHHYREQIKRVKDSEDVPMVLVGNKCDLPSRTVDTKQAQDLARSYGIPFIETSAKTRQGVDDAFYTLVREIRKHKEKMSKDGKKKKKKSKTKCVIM
T3 sequence (P01116 1-188 isoform P01116-2 Q61H): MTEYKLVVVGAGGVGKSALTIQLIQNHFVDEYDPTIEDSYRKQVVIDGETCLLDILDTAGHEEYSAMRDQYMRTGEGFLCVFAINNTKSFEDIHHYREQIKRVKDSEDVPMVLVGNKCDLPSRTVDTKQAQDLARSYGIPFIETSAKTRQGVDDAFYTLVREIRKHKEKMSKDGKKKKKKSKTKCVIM
T8 sequence (P01116 1-188 isoform P01116-2 G12V): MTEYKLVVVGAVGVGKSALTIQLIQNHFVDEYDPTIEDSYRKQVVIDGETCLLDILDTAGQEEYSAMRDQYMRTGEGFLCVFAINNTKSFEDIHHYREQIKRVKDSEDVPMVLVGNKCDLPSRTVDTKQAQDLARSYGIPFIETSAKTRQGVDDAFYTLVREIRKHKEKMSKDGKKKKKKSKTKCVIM
T7 sequence (P01116 1-188 isoform P01116-2 G12C): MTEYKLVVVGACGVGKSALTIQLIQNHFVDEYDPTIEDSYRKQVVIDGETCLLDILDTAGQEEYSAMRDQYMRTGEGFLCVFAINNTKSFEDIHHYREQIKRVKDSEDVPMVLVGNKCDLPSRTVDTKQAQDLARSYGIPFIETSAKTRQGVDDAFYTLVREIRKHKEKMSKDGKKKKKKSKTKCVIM
T1 sequence (P01116 1-188 isoform P01116-2 G12S): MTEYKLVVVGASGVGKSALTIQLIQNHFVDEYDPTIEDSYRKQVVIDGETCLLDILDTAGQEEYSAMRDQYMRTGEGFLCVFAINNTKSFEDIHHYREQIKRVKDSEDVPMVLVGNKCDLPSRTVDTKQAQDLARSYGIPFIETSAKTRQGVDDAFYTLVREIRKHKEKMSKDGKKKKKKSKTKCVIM
T5 sequence (P01116 1-188 isoform P01116-2 G13D): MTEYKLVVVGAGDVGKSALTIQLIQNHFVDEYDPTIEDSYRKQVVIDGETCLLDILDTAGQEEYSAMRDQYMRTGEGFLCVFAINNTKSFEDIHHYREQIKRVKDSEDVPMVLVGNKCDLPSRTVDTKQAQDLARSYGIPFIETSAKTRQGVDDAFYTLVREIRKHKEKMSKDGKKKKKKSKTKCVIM
T2 sequence (P01116 1-188 isoform P01116-2): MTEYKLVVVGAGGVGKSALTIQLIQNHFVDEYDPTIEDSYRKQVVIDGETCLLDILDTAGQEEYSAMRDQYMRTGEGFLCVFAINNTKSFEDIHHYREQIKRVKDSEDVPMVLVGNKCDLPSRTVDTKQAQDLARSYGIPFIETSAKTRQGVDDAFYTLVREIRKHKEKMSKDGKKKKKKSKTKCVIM

Broadly, the IC50 is the concentration at which inhibition is half-maximal. On to `C#Cc1c(F)ccc2cc(O)cc(-c3ncc4c(NCCCOC)nc(OC[C@@]56CCCN5C[C@H](F)C6)nc4c3F)c12` (relative stereo) [Example 85, 5-ethynyl-6-fluoro-4-[8-fluoro-2-[[trans-2-fluoro-1,2,3,5,6,7-hexahydropyrrolizin-8-yl]methoxy]-4-(3-methoxypropylamino)pyrido[4,3-d]pyrimidin-7-yl]naphthalen-2-ol], for which the IC50 in test [1] is 10 to 100 nM; in test [2] it was at most 10 nM; in test [3], 10 to 100 nM; in test [4] it was at most 10 nM; in test [5] (setting [9]), over 10000 nM; in test [6], at most 10 nM. The IC50 in test [7] and in test [8] was at most 10 nM in each case.
On to `Oc1cc(-c2ncc3c(N4CCCOCC4)nc(OCC45CCCN4CCC5)nc3c2F)c2ccccc2c1` [Example 3, 4-[8-fluoro-2-(1,2,3,5,6,7-hexahydropyrrolizin-8-ylmethoxy)-4-(1,4-oxazepan-4-yl)pyrido[4,3-d]pyrimidin-7-yl]naphthalen-2-ol], for which the IC50 in test [1] is 10 to 100 nM; in test [2] it was 10 to 100 nM; in test [3], 10 to 100 nM; in test [4], at most 10 nM; in test [5], 100 to 10000 nM; in test [6] it was at most 10 nM. Further, the IC50 in test [7] and in test [8] was at most 10 nM in each case.
As for `CC1COCCN(c2nc(OCC34CCCN3CCC4)nc3c(F)c(-c4cc(O)cc5ccccc45)ncc23)C1` (stereo not shown) [Example 19, 4-[8-fluoro-2-(1,2,3,5,6,7-hexahydropyrrolizin-8-ylmethoxy)-4-(6-methyl-1,4-oxazepan-4-yl)pyrido[4,3-d]pyrimidin-7-yl]naphthalen-2-ol], the IC50 in test [1] was 100 to 10000 nM; in test [2], 10 to 100 nM; in test [3], 100 to 10000 nM; in test [4], 10 to 100 nM; in test [5] (setting [9]) it was over 10000 nM; in test [6], 10 to 100 nM. Moreover, the IC50 in test [7] and in test [8] was 10 to 100 nM throughout.
With `Oc1cc(-c2ncc3c(N4CCCSCC4)nc(OCC45CCCN4CCC5)nc3c2F)c2ccccc2c1` [Example 38, 4-[8-fluoro-2-(1,2,3,5,6,7-hexahydropyrrolizin-8-ylmethoxy)-4-(1,4-thiazepan-4-yl)pyrido[4,3-d]pyrimidin-7-yl]naphthalen-2-ol], the IC50 in test [1] is 10 to 100 nM; in test [2], 10 to 100 nM; in test [3], 10 to 100 nM; in test [4], 10 to 100 nM; in test [5] (setting [9]) it was over 10000 nM; in test [6], at most 10 nM. Also, the IC50 in test [7] and in test [8] was at most 10 nM throughout.
As to `Oc1cc(-c2ncc3c(N4CCCC5(CCOC5)C4)nc(OCC45CCCN4CCC5)nc3c2F)c2ccccc2c1` (stereo not shown) [Example 56, 4-[8-fluoro-2-(1,2,3,5,6,7-hexahydropyrrolizin-8-ylmethoxy)-4-(2-oxa-9-azaspiro[4.5]decan-9-yl)pyrido[4,3-d]pyrimidin-7-yl]naphthalen-2-ol], the IC50 is 100 to 10000 nM in test [1]; 100 to 10000 nM in test [2]; 100 to 10000 nM in test [3]; 100 to 10000 nM in test [4]; over 10000 nM in test [5] (setting [9]); 100 to 10000 nM in test [6]. Moreover, the IC50 in test [7] and in test [8] was 100 to 10000 nM each time.
